Assay results from patent US20230234917A1, “ASPARAGINE DERIVATIVES AND METHODS OF USING SAME” (priority 2020, published 2023).

Legend:
ClbP [1] = target: T1, ClbP (Escherichia coli, UniProt Q0P7K6); test: ClbP cell lysate activity (inhibition) assay, fluorogenic substrate; type: biochemical; conditions: ClbP Lysate Inhibition Assay: IC50, E. coli ClbP+ lysozyme-EDTA lysates, 5 μM fluorogenic substrate, inhibitor 0-300 μM, 37° C., singlicate
Description: Cell Lysate Activity Assay
(§1) 1) E. coli ClbP+ were taken from a frozen stock and streaked onto BHI plates. They were grown aerobically at 37° C. overnight in the incubator.
(§2) 1) A single colony was selected from the plate and inoculated into 30 mL LB in a 50 mL conical vial eight times (240 mL total). The bacteria were grown aerobically overnight (16-20 h) at 37° C. on a nutator with rocking.
1) The saturated overnight culture was centrifuged to create a firm pellet (3,200 g, 10 min, 4° C.). The supernatant was removed and then the pellet was resuspended in 30 mL sterile PBS.
2) The bacteria were centrifuged again (3,200 g, 10 min, 4° C.). The supernatant was removed, and the pellet was resuspended in sterile PBS buffer (3 mL) in each 8 tubes to make a tenfold concentrated bacterial solution.
3) A lysozyme-EDTA (LE) solution was made in ddH2O (0.05 mg/mL lysozyme, 0.25 M EDTA).
4) For each of the eight tubes, LE solution (3 mL) was mixed with concentrated bacterial solution (3 mL). This mixture was incubated at 37° C. for 30 min to generate the lysates.
5) The lysates (192 μL) were mixed with inhibitor (6 μL, final concentration was 300, 100, 33.3, 11.1, 3.7, 1.2, 0.4, or 0 μM). Fluorogenic substrate (2 μL, final concentration 5 μM) was immediately added across the plate to initiate the reaction. As a control, each plate contained Compound No. III in this dose response curve. The final concentration of bacterial lysates was fivefold concentrated compared to the original saturated overnight culture. Carryover from DMSO was 4% (v/v). All compounds were tested in singlicate.
(§3) 6) The plate was loaded into a spectrophotometer preheated to 37° C. The fluorescence was recorded every 2 min for 46 min. The excitation wavelength was 360 nm (20 nm bandwidth), the emission wavelength was 460 nm (20 nm bandwidth), the optics position was bottom, the gain was 65, the light source was a tungsten bulb, and the read speed was normal.
(§4) 7) The linear portion of the fluorescence increase was 0-20 min. The rate of fluorescence increase (A.U./min) for each well in an inhibitor series was normalized to the 0 μM inhibitor condition. The normalized activity as a function of inhibitor concentration was then fit to a three parameter IC50 curve in Graphpad Prism.
(§5) “A” indicates an IC50 value less than 100 μM, “B” indicates an IC50 between 100 and 300 μM, “C” indicates an IC50 above 300 μM.

ClbP [2] = target: T1, ClbP; test: ClbP whole cell activity (inhibition) assay, fluorogenic substrate; type: cell-based, E. coli
Description: Whole Cell Activity Assay
as §1, §2
1) The saturated overnight culture was centrifuged to create a firm pellet (3,200 g, 10 min, 4° C.). In a biosafety cabinet, the supernatant was removed and then the pellet was resuspended in 30 mL sterile PBS.
2) The bacteria were centrifuged again (3,200 g, 10 min, 4° C.). The supernatant was removed, and the pellet was resuspended in sterile PBS buffer (6 mL) in each of the 8 tubes. This fivefold concentrated bacterial solution was the working solution.
3) The bacterial working solution (192 μL) was mixed with inhibitor (6 μL, final concentration was 300, 100, 33.3, 11.1, 3.7, 1.2, 0.4, or 0 μM). Fluorogenic substrate (2 μL, final concentration 5 μM) was immediately added across the plate to initiate the reaction. As a control, each plate contained Compound No. III in this dose response curve. The bacterial concentration was fivefold concentrated compared to the original saturated overnight culture. Carryover from DMSO was 4% (v/v). All compounds were tested in singlicate.
as §3, with “4)” for “6)”
as §4, with “5)” for “7)”, “10-30” for “0-20”
as §5

Full-length WT ClbP = Full-length WT ClbP (Escherichia coli, UniProt Q0P7K6); test: ClbP molecular (purified protein) enzymatic inhibition assay, fluorogenic substrate; type: biochemical, E. coli
Description: ClbP Molecular (Purified Protein) Assay
1) Full-length WT ClbP was thawed on ice. A diluted enzyme solution (2 nM) was made by mixing 3.57 μL of enzyme with 20 mL of reaction buffer (50 mM Tris pH 8.0, 200 mM NaCl, 0.02% (w/v) n-dodecyl-b-D-maltoside (DDM)).
2) In a 96 well plate, the diluted protein solution (73.5 μL) was mixed with inhibitor (1.5 μL, of varying concentrations, see below) and preincubated for 15 min at room temperature. Then, reaction buffer (75 μL) containing 10 μM fluorogenic substrate was added to initiate the reaction. After addition of substrate, the final concentrations were 1 nM full-length WT ClbP, 5 μM fluorogenic substrate in 50 mM Tris pH 8.0, 200 mM NaCl, 0.02% (w/v) DDM, with either 0, 0.14, 0.41, 1.2, 3.7, 11, 33, or 100 μM inhibitor. For all conditions, the DMSO carryover was 2% (v/v) at the preincubation stage and 1% in the reaction stage. Compound No. III was always present as a control in each plate, and all compounds were tested in singlicate. In previous assays, the Km of the fluorogenic substrate was determined to be approximately 5 μM.
3) Immediately after addition of substrate to enzyme, the plate was transferred into a spectrophotometer held at room temperature. The fluorescence was recorded every 1.5 min for 15 min. The excitation wavelength was 360 nm (20 nm bandwidth), the emission wavelength was 440 nm (20 nm bandwidth), the optics position was bottom, the gain was extended, the light source was a xenon flash lamp, and the read speed was normal.
as §4, with “4)” for “7)”, “is at least from 0-6 min, so this time regime is used.” for “was 0-20 min.”
as §5

Compound | IC50 (ClbP [1]) | IC50 (ClbP [2]) | IC50 (Full-length WT ClbP)
NC(=O)C[C@@H](NC(=O)CCCC1CCCCC1)C(=O)NCCc1ccccn1 [Compound CCCIII] | < 100 µM | < 100 µM | < 100 µM
CCCCCCCC(=O)N[C@H](CC(N)=O)C(=O)NC[C@@H](C)c1ccccc1 [Compound CCCII] | < 100 µM | < 100 µM | < 100 µM
NC(=O)C[C@@H](NC(=O)CCCCCCCCC(F)(F)F)C(=O)NCCc1ccc(O)cc1 [Compound CCCIV] | < 100 µM | < 100 µM | < 100 µM
CCCCCCCCCC(=O)N[C@H](CC(N)=O)C(=O)NCCc1ccccn1 [Compound CCCIX] | < 100 µM | < 100 µM | < 100 µM
CCCCCCCC(=O)N[C@H](CC(N)=O)C(=O)NC[C@H](C)c1ccccc1 [Compound CCCI] | < 100 µM | < 100 µM | < 100 µM
CN1CCC(CCCC(=O)N[C@H](CC(N)=O)C(=O)NCCc2ccc(O)cc2)CC1 [Compound CCCVIII] | > 300 µM | < 100 µM | > 300 µM
CCCCCCCCCCCC(=O)N[C@H](CC(N)=O)C(=O)NCCc1ccc(O)cc1 [Compound CCCVII] | < 100 µM | < 100 µM | < 100 µM
CCCCCCCC(=O)N[C@H](CC(N)=O)C(=O)NCCc1c(F)cc(O)cc1F [Compound CCCVI] | < 100 µM | < 100 µM | < 100 µM
NC(=O)C[C@@H](NC(=O)CCCCCCC(F)(F)F)C(=O)NCCc1ccc(O)cc1 [Compound CCCV] | < 100 µM | < 100 µM | < 100 µM
CCCCCCCC(=O)N[C@H](CC(N)=O)c1ncnn1Cc1ccccc1 [Compound CCCXII] | > 300 µM | > 300 µM | > 300 µM
CCCCCCCC(=O)N[C@](C)(CC(N)=O)C(=O)NCCc1ccc(O)cc1 [Compound CCCXI] | > 300 µM | > 300 µM | > 300 µM
CCCCCCCCCCCC(=O)N[C@H](CC(N)=O)C(=O)NCCc1ccccn1 [Compound CCCX] | < 100 µM | > 300 µM | < 100 µM
CNCCCCCC(=O)N[C@H](CC(N)=O)C(=O)NCCc1ccc(O)cc1 [Compound CCC] | > 300 µM | > 300 µM | > 300 µM
CCCCCCCC(=O)N[C@H](CC(N)=O)C(=O)N[C@H](C)Cc1ccccc1 [Compound CCIII] | < 100 µM | < 100 µM | < 100 µM
CCCCCCCC(=O)N[C@H](CC(N)=O)C(=O)N[C@@H](C)Cc1ccccc1 [Compound CCIV] | > 300 µM | > 300 µM | 100 to 300 µM
CCCCCCCNC(=O)[C@H](CC(N)=O)NC(=O)OCc1ccccc1 [Compound CCIX] | > 300 µM | > 300 µM | 100 to 300 µM
CCCCCCCC(=O)N[C@H](CC(N)=O)C(=O)NCc1ccccc1 [Compound CCI] | < 100 µM | < 100 µM | < 100 µM
